Laboratory results from PMC4229492 (International journal of toxicology, 2014).
Values joined by “and” are separate entries in the source; they are usually repeats but may differ in a detail not shown here. Equal entries are not always repeated.

Tests used:
[1] = tested on: Salmonella typhimurium TA98; assay: Ames assay, strain TA98; type: cell-based; details: for Mutagenic response (dose-related increase in revertant colonies): TA98, with and without metabolic activation; for Cytotoxicity to TA98: under any test condition; for Doses at which precipitate was seen on the plates: Ames plates
human whole blood = assay: In vitro methemoglobin assay; type: cell-based
[2] = tested on: human liver cancer cell lines (HepG2, Hep3B, Huh7, PLC5); assay: Cytotoxicity, panel of four human liver cancer cell lines; type: cell-based; details: read-out: IC50 values, range over the panel of human liver cells
[3] = cited from earlier work
L6 rat myoblasts = details: read-out: IC50 against the L6 cell line; L6 rat myoblasts in vitro; cited from earlier work
T. b. rhodesiense = details: read-out: antitrypanosomal IC50; T. b. rhodesiense in vitro; cited from earlier work
[4] = tested on: first stage trypanosome infection; details: i.p. 50 mg/kg/day for five days; cited from earlier work

In the case of `CC1=CC(C)(C)N(Cc2ccccc2)c2ccc(Cl)cc21` [JR-I-78, 1-benzyl-6-chloro-2,2,4-trimethyl-1,2-dihydroquinoline], the “Mutagenic response (dose-related increase in revertant colonies)” value [1] is reported as “did not elicit a mutagenic response”, the “Cytotoxicity to TA98” value [1] is reported as “not cytotoxic” and the Methemoglobin level (human whole blood; 10 μM, 60 min, 37 °C) is reported as 0.8%. It also gave a Methemoglobin level (human whole blood; 50 μM, 60 min, 37 °C) of 0.8%.
For `CC1=CC(C)(C)N(Cc2ccccc2)c2ccc(O)cc21.Cl` [OSU-36.HCl, 1-benzyl-1,2-dihydro-2,2,4-trimethylquinolin-6-ol hydrochloride], the IC50 [2] is given as 5.2 to 20 µM, the OSU-36 plasma concentration ([3]; intravenous OSU-36.HCl 2 mg/kg, measured at 60 min, analyte OSU-36) is given as “approximately 150 ng/mL and ~ 0.53 μM” and the IC50 (L6 rat myoblasts) is given as 11 µM. The “Doses at which precipitate was seen on the plates” value [1] was ≥ 500 μg/plate, the “Mutagenic response (dose-related increase in revertant colonies)” value [1] was “did not elicit a mutagenic response” and the “Doses cytotoxic to the TA98 strain” value ([1]; in the absence of metabolic activation) was ≥ 100 μg/plate. The “Doses cytotoxic to the TA98 strain” value ([1]; in the presence of metabolic activation) was ≥ 500 μg/plate, the IC50 (T. b. rhodesiense) was 0.013 µM and the “Outcome in murine first stage trypanosomiasis model” value [4] was “resulted in cures”. It also gave a Methemoglobin level (human whole blood; 10 μM, 60 min, 37 °C) of 2.1% and a Methemoglobin level (human whole blood; 50 μM, 60 min, 37 °C) of 9.3%.
In the case of `CC(=O)Oc1ccc2c(c1)C(C)=CC(C)(C)N2Cc1ccccc1` [OSU-40, 1-benzyl-1,2-dihydro-2,2,4-trimethylquinolin-6-yl acetate], the IC50 [2] is listed as 8 to 36 µM, the Deacetylation in vivo ([3]; preliminary pharmacokinetic studies in rats) is listed as “rapidly deacetylated” and the IC50 (L6 rat myoblasts) is listed as 24 µM. For the same molecule, the IC50 (T. b. rhodesiense) was 0.012 µM.
With `COc1ccccc1CN1c2ccc(OC(C)=O)cc2C(C)=CC1(C)C` [OSU-75, 1-(2-methoxybenzyl)-1,2-dihydro-2,2,4-trimethylquinolin-6-yl acetate] the “Doses at which precipitate was seen on the plates” value [1] was ≥ 500 μg/plate, the “Mutagenic response (dose-related increase in revertant colonies)” value [1] was “did not elicit a mutagenic response” and the “Cytotoxicity to TA98” value [1] was “not cytotoxic”. For the same molecule, the “Outcome in murine first stage trypanosomiasis model” value [4] was “resulted in cures”, the Methemoglobin level (human whole blood; 10 μM, 60 min, 37 °C) was 1.2% and the Methemoglobin level (human whole blood; 50 μM, 60 min, 37 °C) was 3.8%.
`O=N[O-].[Na+]` [Sodium nitrite, reference compound] gave a Methemoglobin level (human whole blood; 5 mM, 10 min) of 37.4%, a Methemoglobin level (human whole blood; 5 mM, 30 min) of 41.2% and a Methemoglobin level (human whole blood; 5 mM, 60 min) of 50.6%.
